The target in this experiment is human recombinant P2X7 receptor (Homo sapiens (Human), UniProt Q99572). The experiment in a line: YO-PRO1 assay, P2X7 receptor antagonistic activity.

This passage reports IC50 results from patent US9556117B2, “Indole carboxamide derivatives as P2X7 receptor antagonists” (ACTELION PHARMACEUTICALS LTD, priority 2012, dated 2017).

Chain of human recombinant P2X7 receptor (Q99572 whole entry): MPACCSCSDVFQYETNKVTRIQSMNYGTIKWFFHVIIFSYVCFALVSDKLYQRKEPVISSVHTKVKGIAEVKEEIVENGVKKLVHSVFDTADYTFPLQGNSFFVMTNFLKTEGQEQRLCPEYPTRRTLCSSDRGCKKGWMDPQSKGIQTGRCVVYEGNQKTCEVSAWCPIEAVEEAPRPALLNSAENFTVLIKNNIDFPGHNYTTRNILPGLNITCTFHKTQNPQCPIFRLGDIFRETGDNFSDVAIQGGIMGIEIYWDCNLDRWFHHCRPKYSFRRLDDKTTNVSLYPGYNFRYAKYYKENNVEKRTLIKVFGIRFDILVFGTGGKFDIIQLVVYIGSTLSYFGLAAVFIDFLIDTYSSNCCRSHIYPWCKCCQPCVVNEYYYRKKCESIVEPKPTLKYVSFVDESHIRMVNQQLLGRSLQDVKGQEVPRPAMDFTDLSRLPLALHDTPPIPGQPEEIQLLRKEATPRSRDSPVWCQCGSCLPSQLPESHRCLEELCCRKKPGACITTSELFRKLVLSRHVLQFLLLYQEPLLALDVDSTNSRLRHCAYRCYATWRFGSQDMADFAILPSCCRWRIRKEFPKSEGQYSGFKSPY

Usually IC50 stands for the concentration that inhibits the measured activity by half. `CC(O)c1cc(C(=O)NCC2(O)CCC(F)(F)CC2)c(Cl)c2cc[nH]c12` (racemic) [Example 67, rac-4-Chloro-7-(1-hydroxy-ethyl)-1H-indole-5-carboxylic acid (4,4-difluoro-1-hydroxy-cyclohexylmethyl)-amide]: the IC50 turned out to be 4.7 nM. For the molecule `O=C(NC(CO)C1CCCCCC1)c1ccc2[nH]ccc2c1Cl` (racemic) [Example 10, rac-4-Chloro-1H-indole-5-carboxylic acid (1-cycloheptyl-2-hydroxy-ethyl)-amide], the IC50 came to 57 nM.
